The subject of one data set is human erythrocytes. The format is cell-based. The conditions noted are these: 30 min. On the procedure:
Red blood cell concentrates were kindly provided by the Regional Centre for Blood Donation and Blood Treatment in Gdansk. The haemolytic activity determination was carried out by the serial dilution method according to the procedure described earlier. Human erythrocytes were suspended in a solution of saline to obtain a cell density of suspension 2 × l0^7 per mL. Suitable amounts of solutions of compounds diluted in DMSO were added to the cell suspension in tubes, incubated at 37 °C for 30 min, and then centrifuged (1700× g, 5 min, 4 °C). The concentration of haemoglobin in the supernatant after centrifugation of the erythrocytes suspension was determined by measuring the absorbance at wavelength λ = 540 nm (A540 ^sample). Control experiments with the same amount of DMSO were also performed (A540 ^DMSO). The maximum level of haemolysis was obtained after incubation of the cell suspension in the presence of 0.1% Triton X-100 (positive control, A540 ^0.1%Triton X−100). […] The EH50 values for each compound were calculated with GraphPad Prism 8 software. The EH50 is the interpolated concentration of compound, for which the A540 value is exactly 50% of the A540 value measured for the positive control sample. EH (%) was calculated as follows:EH (%) = ((A540 ^sample − A540 ^DMSO)/(A540 ^0.1%Triton X−100 − A540 ^0.9%NaCl)) × 100

The subject of data set [1] is Candida parapsilosis ATCC 22019. Description: microbe, parasite or virus in culture. The conditions noted are these: Lodderomyces parapsilosis, ATCC22019, 24 h, pH 7.
A further data set concerns S. cerevisiae ATCC 9763. Description: Minimal fungicidal concentration, spot assay. The conditions noted are these: Saccharomyces cerevisiae, ATCC9763; minimal fungicidal concentration that kills 99% of cells; read-out: MFC. Format: cell-based. On the procedure: (§1) To establish the possible mode of action for Compound 1-R8, we have analysed the killing activity and determined minimal fungicidal concentrations (MFCs) (Table 4). Additionally, killing kinetics analysis against pathogenic C. albicans ATCC 10231 was performed (Figure 2).
(§2) Minimum fungicidal concentrations (MFCs) were determined as described previously by spot assay. The MFC was determined as the lowest concentration of the test compound in which no recovery of microorganisms was observed.

A further data set deals with Candida krusei ATCC 6258. Description: microbe, parasite or virus in culture. The note with it: Pichia kudriavzevii, ATCC6258, 24 h, pH 7.
The test system of data set [2] is Saccharomyces cerevisiae ATCC 9763. Description: microbe, parasite or virus in culture. The conditions noted are these: ATCC9763, 24 h, pH 7.
Data set [3] has as its system C. albicans ATCC 10231. Description: microbe, parasite or virus in culture. Format: cell-based. The note with it: Candida albicans, ATCC10231; minimal fungicidal concentration that kills 99% of cells; read-out: MFC. On the procedure: as §1, §2
A further data set relates to C. glabrata DSM 11226. Description: microbe, parasite or virus in culture. Format: cell-based. The conditions noted are these: Nakaseomyces glabratus, DSM11226; minimal fungicidal concentration that kills 99% of cells; read-out: MFC. The method, then:
as §1, §2

Another data set relates to C. krusei DSM 6128. Briefly: microbe, parasite or virus in culture. The format is cell-based. The conditions noted are these: Pichia kudriavzevii, DSM6128; minimal fungicidal concentration that kills 99% of cells; read-out: MFC. On the procedure: as §1, §2
Another data set relates to C. parapsilosis DSM 5784. Description: microbe, parasite or virus in culture. The format is cell-based. The conditions noted are these: Lodderomyces parapsilosis, DSM5784; minimal fungicidal concentration that kills 99% of cells; read-out: MFC. On the procedure:
as §1, §2

In data set [4] the test system is Candida glabrata ATCC 90030. Briefly: microbe, parasite or virus in culture. The conditions noted are these: Nakaseomyces glabratus, ATCC90030, 24 h, pH 7.
The test system of data set [5] is C. albicans ATCC 10231. The format is cell-based, Candida albicans. The method, then: Killing kinetics analysis was performed as described previously. […] After an appropriate time of incubation, 10 μL was withdrawn and spread on YPG agar plates. The number of colony-forming units (CFUs) was determined after overnight incubation of the plates at 37 °C. The killing kinetics analysis was performed with the GraphPad Prism 8 software (GraphPad Software Inc., San Diego, CA, USA).

For data set [6], the system named is Candida albicans ATCC 10231. Briefly: microbe, parasite or virus in culture. The note with it: ATCC10231, 24 h, pH 7.

For orientation: MFC means the smallest concentration meeting the test's criterion for killing the fungus.

Converted amounts (≈) assume the structure as drawn.

In the data set with human erythrocytes, `C[C@@H]1[C@H](O)[C@@H](C)/C=C/C=C/C=C/C=C/C=C/C=C/C=C/[C@H](O[C@@H]2O[C@H](C)[C@@H](O)[C@H](N)[C@@H]2O)C[C@@H]2O[C@](O)(C[C@@H](O)C[C@@H](O)[C@H](O)CC[C@@H](O)C[C@@H](O)CC(=O)O[C@H]1C)C[C@H](O)[C@H]2C(=O)O` [Amphotericin B] came in with an EH50 of 3.46 ± 0.15 µg/mL. Further, the MIC90 in [1] was 1 µg/mL (≈ 1.08 µM); in the data set on Candida krusei ATCC 6258, 1 µg/mL (≈ 1.08 µM); in data set [2] it was 0.5 µg/mL (≈ 0.541 µM); in [4], 1 µg/mL (≈ 1.08 µM); in data set [6] it was 0.5 µg/mL (≈ 0.541 µM). The MFC in the data set with S. cerevisiae ATCC 9763, in the data set on C. albicans ATCC 10231 [3], in the data set on C. glabrata DSM 11226, in the data set on C. krusei DSM 6128 and with C. parapsilosis DSM 5784 was 2 µg/mL (≈ 2.16 µM) throughout. Further, in the data set on C. albicans ATCC 10231 [5], the “mortality of the microbial population” value is given as “about 60%”.

The values above are taken from paper PMC8705783, “The Effect of Conjugation with Octaarginine, a Cell-Penetrating Peptide on Antifungal Activity of Imidazoacridinone Derivative” (International Journal of Molecular Sciences, 2021).
